This experiment concerns RSV strain A2. Description: in vitro cytoprotection assay against RSV in Hep2 cells. The following applies: human respiratory syncytial virus, HEp-2, 96 h; 1 uM compound; RSV-induced cytopathic effect in Hep2 cells, 4 days, Cell TiterGlo; read-out: RSV % inh. @ 1 uM. It counts as cell-based. The protocol: Antiviral activity against RSV was determined using an in vitro cytoprotection assay in Hep2 cells. […] The method used is similar to methods previously described in Chapman J et al., “RSV604 a novel inhibitor of respiratory syncytial virus replication,” Antimicrob Agents Chemother, 51(9):3346-53 (2007).
Hep2 cells were obtained from ATCC (Manassas, Va.) and maintained in MEM media supplemented with 10% fetal bovine serum and penicillin/streptomycin. Cells were passaged twice a week and kept at subconfluent stage. Commercial stock of RSV strain A2 (Advanced Biotechnologies, Columbia, Md.) was titered before compound testing to determine the appropriate dilution of the virus stock that generates desirable cytopathic effect in Hep2 cells.
For antiviral tests, Hep2 cells were seeded into 96-well plates 24 hours before the assay at a density of 3,000 cells/well. On a separate 96well plate, tested compounds were serially diluted in cell culture media. Eight concentrations in 3-fold serial dilution increments were prepared for each tested compound and 100 uL/well of each dilution was transferred in duplicate onto plates with seeded Hep2 cells. Subsequently, appropriate dilution of virus stock previously determined by titration was prepared in cell culture media and 100 uL/well was added to test plates containing cells and serially diluted compounds. Each plate included three wells of infected untreated cells and three wells of uninfected cells that served as 0% and 100% virus inhibition control, respectively. Following the infection with RSV, testing plates were incubated for 4 days in a tissue culture incubator. After the incubation, RSV-induced cytopathic effect was determined using a Cell TiterGlo reagent (Promega, Madison, Wis.) followed by a luminescence read-out. The percentage inhibition was calculated for each tested concentration relative to the 0% and 100% inhibition controls and the EC50 value for each compound was determined by non-linear regression as a concentration inhibiting the RSV-induced cytopathic effect by 50%. Ribavirin (purchased from Sigma, St. Louis, Mo.) was used as a positive control for antiviral activity.
On the technique in general: Cytopathic effects are the visible damage that an infection or toxin causes in cultured cells.
For the compound `O=C(NC1CC1)c1cc2c(s1)-c1ccccc1N(C(=O)c1ccc(NC(=O)c3cccnc3N3CCC3)cc1)CC2` [Example 46], the inhibition at 1 µM was found to be 98%. Turning to `O=C(NC1CC1)c1cc2c(s1)-c1ccccc1N(C(=O)c1ccc(NC(=O)c3cccnc3N3CC[C@@H](F)C3)cc1)CC2` [Example 38], the inhibition at 1 µM was found to be 99%. As for `O=C(NC1CC1)c1cc2c(s1)-c1ccccc1N(C(=O)c1ccc(NS(=O)(=O)c3ccccc3)cc1)CC2` [Example 34], the figure is 90%; as for `O=C(NC1CC1)c1cc2c(s1)-c1ccccc1N(C(=O)c1ccc(NC(=O)c3cnccc3N3CCC3)cc1)CC2` [Example 19], 100%.

For the compound `O=C(Nc1ccc(C(=O)N2CCc3cc(C(=O)NC4CC4)sc3-c3ccccc32)cc1)c1ccc(N2CCC2)nc1` [Example 31], the inhibition at 1 µM was 30%.

Turning to `O=C(NC1CC1)c1cc2c(s1)-c1ccccc1N(C(=O)c1ccc(NC(=O)c3cccnc3N3CCC[C@H]3C(F)(F)F)cc1)CC2` [Example 42], the inhibition at 1 µM stood at 99%. The figure for `O=C(NCc1cccs1)c1cc2c(s1)-c1ccccc1N(C(=O)c1ccc(NC(=O)c3cccnc3N3CCCC3)cc1)CC2` [Example 48] is 100%.

These data come from US8999969B2, “Anti-RSV compounds” (Gilead Sciences, Inc., priority 2009, dated 2015).
